Reference: patent US20130217721A1, “COMPOSITIONS AND METHODS FOR DETECTION AND TREATMENT OF B-RAF INHIBITOR-RESISTANT MELANOMAS” (The Regents of the University of California, priority 2010, published 2013)
Where “and” joins values, the source holds several entries; their conditions need not be identical. Equal values may be shown once.

Legend:
[1] = test system: M229 R sub-lines (M229 R5); test: Cell survival / proliferation assay (72 h); type: cell-based, human; conditions: M229 R sub-lines
Description: (§1) Cells were maintained in Dulbecco's modified Eagle medium (DMEM) with 10 or 20% fetal bovine serum and glutamine. shRNAs were sub-cloned into the lentiviral vector pLL3.7 and infections carried out with protamine sulphate. Stocks of PLX4032 (Plexxikon) and AZD6244 (commercially available) were made in DMSO. Cells were quantified using CellTiter-GLO Luminescence (Promega).
(§2) Cell proliferation experiments were performed in a 96-well format (five replicates), and baseline quantification performed at 24 h after cell seeding along with initiation of drug treatments (72 h). Stocks and dilutions of PLX4032 (Plexxikon), AZD6244 (Selleck Chemicals) and U0126 (Promega) were made in DMSO. siRNA pool (Dharmacon) transfections were carried out in 384-well format. TransIT transfection reagent (Mirus) was added to each well and incubated at 37° C. for 20 min. Subsequently, cells were reverse transfected, and the mixture was incubated for 51-61 h at 37° C. Cells were quantified using CellTiter 96 Aqueous One Solution (Promega) or CellTiter-GLO Luminescence (Promega) following the manufacturer's recommendations.

[2] = test system: M238 R sub-lines (M238 R1); test: Cell survival / proliferation assay (72 h); type: cell-based, human; conditions: M238 R sub-lines
Description: as §1, §2

[3] = test system: Pt48 R short-term culture; test: Cell survival / proliferation assay (72 h); type: cell-based, human
Description: as §1, §2

[4] = test system: Pt55 R short-term culture; test: Cell survival / proliferation assay (72 h); type: cell-based, human
Description: as §1, §2

SKMEL-239 = test: Cell cycle and apoptosis analysis; type: cell-based, human; conditions: SKMEL-239 parental, 2 μM PLX4032
Description: Cell proliferation and cell cycle analysis. All melanoma cell lines were generated by A. Houghton (MSKCC) or obtained from ATCC. 293H cells were obtained from Invitrogen. Cells were maintained in DMEM (293H and MEFs), or RPMI (all other cell lines) supplemented with 2 mM glutamine, antibiotics and 10% fetal bovine serum. We confirmed by DNA fingerprinting^20 that all PLX4032-resistant, SKMEL-239 clones were derived from the same patient, thus excluding the possibility of contamination (Table 6). For proliferation assays, cells were plated in 6 well plates and 24 hours later were treated with varying concentrations of inhibitors as indicated. IC50 values were calculated using Graph Pad Prism v.5. For cell cycle and apoptosis studies, cells were seeded in 6 well dishes the day prior to drug treatment. For analysis, both adherent and floating cells were harvested and stained with ethidium bromide as described previously^21.

BRAF(V600E/R509H) = BRAF(V600E/R509H) (Homo sapiens, UniProt P15056, R509H/V600E); test: ERK signaling in 293H cells expressing BRAF(V600E/R509H); type: cell-based; conditions: 2 μM PLX4032 for 1 hour
Chain of BRAF(V600E/R509H) (P15056 whole entry R509H/V600E, the tested form may be a part, canonical isoform): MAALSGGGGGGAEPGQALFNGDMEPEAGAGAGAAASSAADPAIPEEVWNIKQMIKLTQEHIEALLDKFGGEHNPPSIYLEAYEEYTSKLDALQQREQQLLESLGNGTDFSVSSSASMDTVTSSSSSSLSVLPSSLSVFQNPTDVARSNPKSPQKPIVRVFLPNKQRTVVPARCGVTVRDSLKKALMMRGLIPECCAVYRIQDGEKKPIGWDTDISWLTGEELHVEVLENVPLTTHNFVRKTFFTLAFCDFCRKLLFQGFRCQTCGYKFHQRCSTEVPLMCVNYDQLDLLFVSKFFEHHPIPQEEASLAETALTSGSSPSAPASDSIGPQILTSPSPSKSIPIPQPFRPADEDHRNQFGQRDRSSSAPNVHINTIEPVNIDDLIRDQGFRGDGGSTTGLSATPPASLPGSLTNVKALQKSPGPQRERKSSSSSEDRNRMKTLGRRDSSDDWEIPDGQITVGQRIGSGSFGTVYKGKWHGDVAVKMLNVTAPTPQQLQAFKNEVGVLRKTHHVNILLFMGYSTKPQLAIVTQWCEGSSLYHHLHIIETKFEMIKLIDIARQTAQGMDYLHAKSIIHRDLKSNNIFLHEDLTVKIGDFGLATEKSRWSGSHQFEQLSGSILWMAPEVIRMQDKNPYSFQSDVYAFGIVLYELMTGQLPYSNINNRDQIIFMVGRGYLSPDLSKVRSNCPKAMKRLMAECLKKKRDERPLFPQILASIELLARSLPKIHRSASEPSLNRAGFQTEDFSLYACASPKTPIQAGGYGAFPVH
From the text: FIGS. 6A-6E. […] FIG. 6A. PCR analysis of BRAF in cDNA from parental (P) and C3 cells. Primers were designed at the N-terminus and C-terminus of BRAF. […] Abbreviations: CR1: Conserved Region 1, CR2: Conserved Region 2, CR3: Conserved Region 3, RBD: RAS-binding domain, CRD: Cystine-Rich Domain, AS: Activation Segment, KD: Kinase Domain. FIG. 6B. Full length wild-type BRAF and the 1.7 kb/61 kd splice variant of BRAF(V600E) were cloned into a pcDNA3.1 vector with a FLAG tag at the C-terminus and expressed in 293H cells. The effect of PLX4032 (2 μM for 1 hour) on ERK signaling in the presence of p61 BRAF(V600E) was analyzed by western blot for pMEK and pERK. FIG. 6C. To compare levels of dimerization, 293H cells co-expressing FLAG tagged and V5-tagged p61 BRAF(V600E), full length BRAF(V600E) and the corresponding dimerization-deficient mutants p61 BRAF(V600E/R509H) and BRAF(V600E/R509H) were lysed followed by immunoprecipitation with FLAG antibody. Western blots with V5 or FLAG antibodies were performed as indicated. FIG. 6D. Comparison of MEK/ERK activation and sensitivity of ERK signaling to PLX4032 (2 μM for 1 hour) in 293H cells expressing either Flag-tagged BRAF(V600E) or the dimerization mutant Flag-tagged BRAF(V600E/R509H). FIG. 6E. […]

melanoma tumors = test: Melanoma patients treated with vemurafenib (PLX4032): best response and PFS (Table 5); type: in vivo, human; conditions: individual patient; patients 1-19 acquired resistance, 20-21 primary resistant
M395 R = test: Cell survival assay (72 h); type: cell-based, human
From the text: Cell culture, infections and drug treatments. Cells were maintained in DMEM with 10 or 20% fetal bovine serum and glutamine. shRNAs for B-RAF and C-RAF were sub-cloned into the lentiviral vector pLL3.7; pBabe B-RAF (V600E) was purchase (plasmid 17544, Addgene); viral supernatants generated by co-transfection with three packaging plasm ids into HEK293T cells; and infections carried out with protamine sulfate. Stocks and dilutions of PLX4032 (Plexxikon, Berkeley, Calif.) and AZD6244 (commercially available) were made in DMSO. Cells were quantified using CellTiter-GLO Luminescence (Promega) or crystal violet staining followed by NIH Image J quantification.

[5] = test system: M229, M238 and M249 parental cell lines; conditions: B-RAF(V600E)-positive parental cell lines, in vitro and in vivo; cited from earlier work
[6] = Homo sapiens, not reached up to 10 μM, read-out: GI50, concentration of drug that inhibits growth of cells by 50%

CCCS(=O)(=O)Nc1ccc(F)c(C(=O)c2c[nH]c3ncc(-c4ccc(Cl)cc4)cc23)c1F [PLX4032]
GI50 [1, 6]: > 10 µM
growth at low PLX4032 concentrations ([1]; in contrast to parental cells): paradoxically enhanced growth
GI50 [2, 6]: > 10 µM
growth at low PLX4032 concentrations ([2]; in contrast to parental cells): paradoxically enhanced growth
growth resistance to B-RAF inhibitor [3]: resistance
growth resistance to B-RAF inhibitor [4]: resistance
cell cycle effect (SKMEL-239): accumulation of cells in G1
cell death (SKMEL-239): significant induction of cell death
sensitivity of ERK signaling (BRAF(V600E/R509H)): remained sensitive
Best Response (melanoma tumors): −72% (2×) and −20% and −70% (2×) and −22% and −53% (2×) and −31% (2×) and −60% and −47% and −43% and −25% and −74% and −24% and −37% and −100% and −42% and +8%
PFS (melanoma tumors): 464 days and 304 days and 104 days and 161 days and 137 days and 238 days and 212 days and 373 days and 148 days and 299 days and 107 days and 149 days and 126 days and 279 days and 118 days and 241 days and 168 days (2×) and 79 days and 50 days and 106 days
growth sensitivity to vemurafenib treatment (M395 R; M395 R (amplified V600EB-RAF)): highly resistant
drug sensitivity at high vemurafenib dosing (M395 R; vemurafenib from 1 to 50 µM, 72 h, versus M249 R4): highly sensitive
sensitivity to PLX4032-mediated growth inhibition [5]: exquisitely sensitive
